The values that follow are results of earlier work, collected in patent publication US20250231185A1, “Coronavirus T Cell Epitopes, Megapools and Uses Thereof” (La Jolla Institute for Immunology, priority 2021, published 2025).

For one data set, the system named is CD8+ T cells. The conditions noted are these: CD8R (D) megapool epitopes; dominant = recognized by 3 or more donors/different studies; cited from earlier work.
Consider 1754 (GVAMPNLYK) [compound 1754], for which the Dominant entry is recorded as “Yes (more dominant epitopes are defined by being recognized by 3 or more donors/different studies)”.
As for 1716 (LLMPILTLT) [compound 1716], the Dominant result is “Yes (more dominant epitopes are defined by being recognized by 3 or more donors/different studies)”.
Regarding 1758 (KTIQPRVEK) [compound 1758], the Dominant result is “Yes (more dominant epitopes are defined by being recognized by 3 or more donors/different studies)”.
On to 1679 (ATSRTLSYYK) [compound 1679], for which the Dominant result is on record as “Yes (more dominant epitopes are defined by being recognized by 3 or more donors/different studies)”.
Turning to 1770 (YIFFASFYY) [compound 1770], the Dominant entry is listed as “Yes (more dominant epitopes are defined by being recognized by 3 or more donors/different studies)”.
With 1695 (LLLLDRLNQL) [compound 1695], the Dominant result is given as “Yes (more dominant epitopes are defined by being recognized by 3 or more donors/different studies)”.
With 1737 (SSNVANYQK) [compound 1737], the Dominant result was “Yes (more dominant epitopes are defined by being recognized by 3 or more donors/different studies)”.
Take 1751 (KVDGVDVEL) [compound 1751]: the Dominant result was “Yes (more dominant epitopes are defined by being recognized by 3 or more donors/different studies)”.
As to 1736 (KLNVGDYFV) [compound 1736], the Dominant entry is recorded as “Yes (more dominant epitopes are defined by being recognized by 3 or more donors/different studies)”.
Regarding 1741 (VLWAHGFEL) [compound 1741], the Dominant entry was “Yes (more dominant epitopes are defined by being recognized by 3 or more donors/different studies)”.
In the case of 1714 (YTMADLVYAL) [compound 1714], the Dominant entry is “Yes (more dominant epitopes are defined by being recognized by 3 or more donors/different studies)”.
For 1713 (DLKGKYVQI) [compound 1713], the Dominant result is “Yes (more dominant epitopes are defined by being recognized by 3 or more donors/different studies)”.
As for 1671 (NRFLYIIKL) [compound 1671], the Dominant result is reported as “Yes (more dominant epitopes are defined by being recognized by 3 or more donors/different studies)”.
Turning to 1815 (IMLIIFWFSL) [compound 1815], the Dominant entry is listed as “Yes (more dominant epitopes are defined by being recognized by 3 or more donors/different studies)”.

The same data set, now with this note: CD8RE megapool peptides (non-spike SARS-CoV-2 antigens); dominant epitope Yes/No; cited from earlier work.
In the case of 2922 (KMKDLSPRW) [compound 2922], the Dominant entry is recorded as “Yes (more dominant epitopes are defined by being recognized by 3 or more donors/different studies)”.
For 2976 (VLWAHGFEL) [compound 2976], the Dominant result is “Yes (more dominant epitopes are defined by being recognized by 3 or more donors/different studies)”.
3010 (SLRPDTRYVL) [compound 3010]: the Dominant entry is recorded as “Yes (more dominant epitopes are defined by being recognized by 3 or more donors/different studies)”.
Turning to 2950 (TMADLVYAL) [compound 2950], the Dominant entry is on record as “Yes (more dominant epitopes are defined by being recognized by 3 or more donors/different studies)”.
For 2964 (VLQAVGACV) [compound 2964], the Dominant result is “Yes (more dominant epitopes are defined by being recognized by 3 or more donors/different studies)”.
With 3008 (FLPRVFSAV) [compound 3008], the Dominant result was “Yes (more dominant epitopes are defined by being recognized by 3 or more donors/different studies)”.
On to 2953 (FVDGVPFVV) [compound 2953], for which the Dominant entry is “Yes (more dominant epitopes are defined by being recognized by 3 or more donors/different studies)”.
As to 2910 (SMWSFNPET) [compound 2910], the Dominant result was “Yes (more dominant epitopes are defined by being recognized by 3 or more donors/different studies)”.
2938 (GMSRIGMEV) [compound 2938]: the Dominant entry is on record as “Yes (more dominant epitopes are defined by being recognized by 3 or more donors/different studies)”.
3011 (FLLNKEMYL) [compound 3011]: the Dominant result was “Yes (more dominant epitopes are defined by being recognized by 3 or more donors/different studies)”.

Staying with this data set, now noted: HLA-A*01:01 epitopes overlapping TTDPSFLGRY; Saini et al.; cited from earlier work.
Take TTDPSFLGRYM [nsp3 819-829]: the dominance as reported result is given as “particularly dominant”.

Still in this data set, the particulars now being: SARS-CoV-2-derived CD8 epitopes; dominant = recognized by 3 or more donors/different studies; cited from earlier work.
On to 662 (TTDPSFLGRYM) [compound 662], for which the Dominant result was “Yes (more dominant epitopes are defined by being recognized by 3 or more donors/different studies)”.
In the case of 683 (ITDVFYKENSY) [compound 683], the Dominant result is “Yes (more dominant epitopes are defined by being recognized by 3 or more donors/different studies)”.
Take 518 (LALLLLDRL) [compound 518]: the Dominant entry is given as “Yes (more dominant epitopes are defined by being recognized by 3 or more donors/different studies)”.
Take 687 (CTEIDPKLDNY) [compound 687]: the Dominant entry is given as “Yes (more dominant epitopes are defined by being recognized by 3 or more donors/different studies)”.
528 (QELIRQGTDYKHW) [compound 528]: the Dominant entry is recorded as “Yes (more dominant epitopes are defined by being recognized by 3 or more donors/different studies)”.

Staying with this data set, now noted: SARS-CoV-2 Ag S; T cell type recognizing the epitope; cited from earlier work.
For the substance 1457 (QELGKYEQY) [compound 1457], the Restriction result is reported as “CD8”.
Consider 1434 (VTYVPAQEK) [compound 1434], for which the Restriction result is recorded as “CD8”.
As to 1464 (CMTSCCSCLK) [compound 1464], the Restriction entry is “CD8”.
For 1455 (SLIDLQEL) [compound 1455], the Restriction result was “CD8”.
Regarding 1343 (AEHVNNSY) [compound 1343], the Restriction entry is listed as “CD8”.
With 1331 (TPCSFGGVSV) [compound 1331], the Restriction entry is recorded as “CD8”.
For the substance 1328 (KFLPFQQFGR) [compound 1328], the Restriction entry is on record as “CD8”.
In the case of 1349 (RSVASQSII) [compound 1349], the Restriction entry is listed as “CD8”.
For 1424 (FPQSAPHGV) [compound 1424], the Restriction result was “CD8”.
For the substance 1300 (KVGGNYNYLY) [compound 1300], the Restriction entry is listed as “CD8”.
Turning to 1387 (LTDEMIAQYT) [compound 1387], the Restriction entry is recorded as “CD8”.

The same data set, now with this note: T cell subset (CD4 or CD8) recognizing the SARS-CoV-2-derived epitope; cited from earlier work.
As for 662 (TTDPSFLGRYM) [compound 662], the Restriction entry is given as “CD8”.
With 645 (YYTSNPTTFHL) [compound 645], the Restriction result is reported as “CD8”.
For 543 (EVTPSGTWLTY) [compound 543], the Restriction result was “CD8”.
Consider 602 (TPVVQTIEV) [compound 602], for which the Restriction entry is “CD8”.
For the substance 683 (ITDVFYKENSY) [compound 683], the Restriction result is “CD8”.
Regarding 554 (KKQQTVTLL) [compound 554], the Restriction result is on record as “CD8”.
With 644 (YYTSNPTTF) [compound 644], the Restriction entry is on record as “CD8”.
With 518 (LALLLLDRL) [compound 518], the Restriction result is “CD8”.
643 (SVYYTSNPTTF) [compound 643]: the Restriction entry is recorded as “CD8”.
Take 574 (RLIDAMMFT) [compound 574]: the Restriction entry is reported as “CD8”.
As for 553 (KTFPPTEPKKDKKK) [compound 553], the Restriction result is reported as “CD8”.
Turning to 610 (YIATNGPLK) [compound 610], the Restriction result is “CD8”.
Turning to 697 (ASRELKVTF) [compound 697], the Restriction entry was “CD8”.
With 663 (FLGRYMSAL) [compound 663], the Restriction result is on record as “CD8”.
Regarding 676 (VRETMSYLF) [compound 676], the Restriction result is on record as “CD8”.
As for 687 (CTEIDPKLDNY) [compound 687], the Restriction result is reported as “CD8”.
Consider 560 (APHGHVMVEL) [compound 560], for which the Restriction entry is given as “CD8”.
For 528 (QELIRQGTDYKHW) [compound 528], the Restriction result is recorded as “CD8”.
For the substance 688 (TEIDPKLDNYY) [compound 688], the Restriction result is “CD8”.
As for 601 (MELTPVVQTI) [compound 601], the Restriction result is “CD8”.
Consider 654 (QVVDMSMTY) [compound 654], for which the Restriction result is listed as “CD8”.
As to 686 (YTTTIKPVTY) [compound 686], the Restriction entry is “CD8”.
Consider 625 (LTAVVIPTK) [compound 625], for which the Restriction result is given as “CD8”.

Staying with this data set, now noted: T cell type (CD4 or CD8) recognizing the SARS-CoV-2 epitope; cited from earlier work.
With 1058 (LLADKFPVL) [compound 1058], the Restriction result was “CD8”.
As for 1014 (NTSRYWEPEFY) [compound 1014], the Restriction result is listed as “CD8”.
For 1051 (KNLSDRVVFV) [compound 1051], the Restriction entry is reported as “CD8”.
Regarding 1034 (YQKVGMQKY) [compound 1034], the Restriction entry is listed as “CD8”.
As for 969 (ARLYYDSMSY) [compound 969], the Restriction result is listed as “CD8”.
Regarding 1049 (LQLGFSTGV) [compound 1049], the Restriction entry is on record as “CD8”.
As to 918 (VPANSTVL) [compound 918], the Restriction entry is “CD8”.
Take 1028 (YRGTTTYKL) [compound 1028]: the Restriction result was “CD8”.
With 919 (VPANSTVLSF) [compound 919], the Restriction result is “CD8”.
917 (YFIKGLNNL) [compound 917]: the Restriction entry was “CD8”.
In the case of 971 (FAYTKRNVI) [compound 971], the Restriction entry is on record as “CD8”.
For the substance 941 (HVDTDLTKPY) [compound 941], the Restriction entry is listed as “CD8”.
Take 932 (TLKEILVTY) [compound 932]: the Restriction result is recorded as “CD8”.
For the substance 1010 (QEYADVFHLY) [compound 1010], the Restriction entry is recorded as “CD8”.
With 1050 (MYKGLPWNV) [compound 1050], the Restriction entry is on record as “CD8”.
For 974 (TITQMNLKY) [compound 974], the Restriction entry is reported as “CD8”.
Consider 952 (FVVSTGYHFR) [compound 952], for which the Restriction result is “CD8”.
Turning to 1068 (YNLWNTFTRL) [compound 1068], the Restriction entry is given as “CD8”.
Consider 927 (NLIDSYFVV) [compound 927], for which the Restriction result is on record as “CD8”.
Take 1094 (SSEAFLIGCNY) [compound 1094]: the Restriction result is recorded as “CD8”.
As to 985 (LRIMASLVL) [compound 985], the Restriction result is listed as “CD8”.
Take 1099 (NPIQLSSYSL) [compound 1099]: the Restriction result is reported as “CD8”.
